Experimental data published in the kinase profiling compilation of Christmann-Franck et al. (2016).

Experiments:
Experiment in all cases: KINOMEscan competition binding
Settings in all cases: compound 10.0 µM
[1] = system: ABL1 (human), P00519 [M351T]
[2] = target: AKT2 (human) (UniProt P31751)
[3] = target: CDC42BPA (human) (UniProt Q5VT25)
[4] = target: CDK11B (human) (UniProt P21127)
[5] = target: CDK18 (human) (UniProt Q07002)
[6] = target: CDK2 (human) (UniProt P24941)
[7] = target: CDK9 (human) (UniProt P50750)
[8] = target: CSNK1E (human) (UniProt P49674)
[9] = target: CSNK2A1 (human) (UniProt P68400)
[10] = system: EGFR (human), P00533 [A750P; 747-749 del]
[11] = system: EGFR (human), P00533 [G719S]
[12] = target: EIF2AK2 (human) (UniProt P19525)
[13] = target: EPHA2 (human) (UniProt P29317)
[14] = target: EPHB2 (human) (UniProt P29323)
[15] = target: EPHB4 (human) (UniProt P54760)
[16] = target: FGFR3 (human) (UniProt P22607)
[17] = target: HIPK1 (human) (UniProt Q86Z02)
[18] = system: KIT (human), P10721 [D816V]
[19] = system: KIT (human), P10721 [V559D]
[20] = target: LATS1 (human) (UniProt O95835)
[21] = target: MAP2K3 (human) (UniProt P46734)
[22] = target: MAP3K4 (human) (UniProt Q9Y6R4)
[23] = target: MAPK11 (human) (UniProt Q15759)
[24] = target: MAPK13 (human) (UniProt O15264)
[25] = target: MELK (human) (UniProt Q14680)
[26] = target: NEK5 (human) (UniProt Q6P3R8)
[27] = target: NEK7 (human) (UniProt Q8TDX7)
[28] = target: PAK4 (human) (UniProt O96013)
[29] = target: PDGFRB (human) (UniProt P09619)
[30] = target: PHKG2 (human) (UniProt P15735)
[31] = target: PTK2 (human) (UniProt Q05397)
[32] = target: RET (human) (UniProt P07949)
[33] = target: RIOK2 (human) (UniProt Q9BVS4)
[34] = target: RPS6KA4 KD1 (human) (UniProt O75676)
[35] = target: RPS6KA4 KD2 (human) (UniProt O75676)
[36] = target: RPS6KA5 KD1 (human) (UniProt O75582)
[37] = target: STK24 (human) (UniProt Q9Y6E0)
[38] = target: STK35 (human) (UniProt Q8TDR2)
[39] = target: STK38L (human) (UniProt Q9Y2H1)
[40] = target: TNK1 (human) (UniProt Q13470)
[41] = target: TSSK1B (human) (UniProt Q9BXA7)
[42] = target: WEE2 (human) (UniProt P0C1S8)

Sequence of CDK11B (human) (P21127 whole entry, looked up): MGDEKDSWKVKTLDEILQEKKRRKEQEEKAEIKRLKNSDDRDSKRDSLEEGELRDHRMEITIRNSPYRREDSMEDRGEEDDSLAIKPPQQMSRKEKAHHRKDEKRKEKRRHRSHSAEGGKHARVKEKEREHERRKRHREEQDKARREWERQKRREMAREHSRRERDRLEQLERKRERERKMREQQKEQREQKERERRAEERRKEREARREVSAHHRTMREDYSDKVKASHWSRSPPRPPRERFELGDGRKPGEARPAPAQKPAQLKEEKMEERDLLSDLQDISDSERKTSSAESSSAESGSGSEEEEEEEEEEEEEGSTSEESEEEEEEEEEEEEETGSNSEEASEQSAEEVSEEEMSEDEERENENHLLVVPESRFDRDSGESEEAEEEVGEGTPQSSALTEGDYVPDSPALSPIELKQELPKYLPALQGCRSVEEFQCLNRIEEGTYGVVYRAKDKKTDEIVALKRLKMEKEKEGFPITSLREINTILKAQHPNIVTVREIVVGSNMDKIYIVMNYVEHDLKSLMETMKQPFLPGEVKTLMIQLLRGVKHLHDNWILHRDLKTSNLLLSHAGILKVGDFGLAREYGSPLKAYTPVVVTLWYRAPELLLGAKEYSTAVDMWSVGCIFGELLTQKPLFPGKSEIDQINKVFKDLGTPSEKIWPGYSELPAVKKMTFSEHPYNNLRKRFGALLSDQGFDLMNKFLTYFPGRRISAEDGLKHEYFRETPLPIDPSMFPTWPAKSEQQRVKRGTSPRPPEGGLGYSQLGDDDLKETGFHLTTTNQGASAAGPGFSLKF
Sequence of STK35 (human) (Q8TDR2 whole entry, looked up): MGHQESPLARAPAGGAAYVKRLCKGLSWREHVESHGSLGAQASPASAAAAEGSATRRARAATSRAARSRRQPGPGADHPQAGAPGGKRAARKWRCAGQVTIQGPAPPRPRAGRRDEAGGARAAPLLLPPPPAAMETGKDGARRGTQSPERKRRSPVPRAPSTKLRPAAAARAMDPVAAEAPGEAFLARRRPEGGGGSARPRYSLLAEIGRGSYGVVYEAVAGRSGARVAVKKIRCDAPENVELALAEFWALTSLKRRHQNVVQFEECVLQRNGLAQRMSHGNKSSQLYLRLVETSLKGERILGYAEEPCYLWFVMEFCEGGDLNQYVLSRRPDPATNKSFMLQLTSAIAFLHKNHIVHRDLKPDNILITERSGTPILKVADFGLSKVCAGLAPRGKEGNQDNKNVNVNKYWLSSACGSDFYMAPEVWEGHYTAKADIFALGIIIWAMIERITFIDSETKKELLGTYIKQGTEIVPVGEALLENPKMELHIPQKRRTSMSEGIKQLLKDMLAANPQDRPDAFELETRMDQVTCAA
Sequence of CSNK2A1 (human) (P68400 whole entry, looked up): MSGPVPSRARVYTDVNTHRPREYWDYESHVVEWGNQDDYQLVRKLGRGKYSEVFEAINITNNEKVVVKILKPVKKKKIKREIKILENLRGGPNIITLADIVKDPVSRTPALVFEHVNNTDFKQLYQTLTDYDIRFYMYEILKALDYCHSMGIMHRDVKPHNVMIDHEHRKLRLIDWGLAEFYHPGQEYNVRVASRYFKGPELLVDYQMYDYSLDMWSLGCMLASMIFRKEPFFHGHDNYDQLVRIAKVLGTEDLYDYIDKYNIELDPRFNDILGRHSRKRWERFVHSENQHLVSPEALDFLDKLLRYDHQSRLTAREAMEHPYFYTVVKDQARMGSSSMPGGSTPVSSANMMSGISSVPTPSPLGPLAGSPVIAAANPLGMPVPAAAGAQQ
Sequence of EPHA2 (human) (P29317 whole entry, looked up): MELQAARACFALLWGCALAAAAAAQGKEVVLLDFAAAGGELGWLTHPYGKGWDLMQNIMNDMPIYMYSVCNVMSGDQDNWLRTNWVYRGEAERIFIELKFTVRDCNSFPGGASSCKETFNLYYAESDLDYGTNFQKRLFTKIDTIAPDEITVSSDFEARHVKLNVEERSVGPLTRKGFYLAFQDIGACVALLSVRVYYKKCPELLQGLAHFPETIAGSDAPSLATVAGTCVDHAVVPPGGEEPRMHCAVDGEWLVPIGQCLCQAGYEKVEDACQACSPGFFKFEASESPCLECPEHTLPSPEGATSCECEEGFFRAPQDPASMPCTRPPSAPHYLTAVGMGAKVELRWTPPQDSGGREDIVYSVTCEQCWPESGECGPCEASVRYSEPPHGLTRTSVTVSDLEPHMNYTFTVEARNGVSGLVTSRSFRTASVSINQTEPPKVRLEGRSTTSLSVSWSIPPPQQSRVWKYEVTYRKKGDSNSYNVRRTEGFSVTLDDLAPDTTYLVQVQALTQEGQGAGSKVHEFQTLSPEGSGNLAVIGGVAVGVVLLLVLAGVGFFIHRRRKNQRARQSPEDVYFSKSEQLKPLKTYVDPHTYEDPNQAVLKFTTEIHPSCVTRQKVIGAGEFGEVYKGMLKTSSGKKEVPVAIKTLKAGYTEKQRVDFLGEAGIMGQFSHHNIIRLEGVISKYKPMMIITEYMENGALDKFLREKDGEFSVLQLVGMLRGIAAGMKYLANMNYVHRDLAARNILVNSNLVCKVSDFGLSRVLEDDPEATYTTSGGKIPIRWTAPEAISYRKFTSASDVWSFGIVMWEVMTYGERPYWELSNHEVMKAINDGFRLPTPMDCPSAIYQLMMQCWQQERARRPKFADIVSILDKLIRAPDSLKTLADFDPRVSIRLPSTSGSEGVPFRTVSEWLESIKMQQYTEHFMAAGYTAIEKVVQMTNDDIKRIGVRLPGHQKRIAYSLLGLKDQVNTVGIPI
Sequence of RIOK2 (human) (Q9BVS4 whole entry, looked up): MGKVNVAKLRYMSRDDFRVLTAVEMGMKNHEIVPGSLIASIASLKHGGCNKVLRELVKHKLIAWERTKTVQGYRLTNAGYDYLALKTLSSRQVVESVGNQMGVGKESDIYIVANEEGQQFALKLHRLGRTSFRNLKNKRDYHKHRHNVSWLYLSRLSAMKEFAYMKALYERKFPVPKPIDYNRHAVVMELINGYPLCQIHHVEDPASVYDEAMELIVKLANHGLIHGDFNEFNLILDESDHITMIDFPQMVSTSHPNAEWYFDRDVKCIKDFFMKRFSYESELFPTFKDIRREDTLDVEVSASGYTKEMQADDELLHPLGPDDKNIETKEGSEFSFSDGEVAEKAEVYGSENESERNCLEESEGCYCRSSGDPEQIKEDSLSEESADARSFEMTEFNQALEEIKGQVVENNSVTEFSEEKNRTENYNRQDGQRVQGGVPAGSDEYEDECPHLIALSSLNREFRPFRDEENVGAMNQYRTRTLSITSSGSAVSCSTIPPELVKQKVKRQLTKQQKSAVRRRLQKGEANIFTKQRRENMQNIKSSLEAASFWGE
Sequence of TNK1 (human) (Q13470 whole entry, looked up): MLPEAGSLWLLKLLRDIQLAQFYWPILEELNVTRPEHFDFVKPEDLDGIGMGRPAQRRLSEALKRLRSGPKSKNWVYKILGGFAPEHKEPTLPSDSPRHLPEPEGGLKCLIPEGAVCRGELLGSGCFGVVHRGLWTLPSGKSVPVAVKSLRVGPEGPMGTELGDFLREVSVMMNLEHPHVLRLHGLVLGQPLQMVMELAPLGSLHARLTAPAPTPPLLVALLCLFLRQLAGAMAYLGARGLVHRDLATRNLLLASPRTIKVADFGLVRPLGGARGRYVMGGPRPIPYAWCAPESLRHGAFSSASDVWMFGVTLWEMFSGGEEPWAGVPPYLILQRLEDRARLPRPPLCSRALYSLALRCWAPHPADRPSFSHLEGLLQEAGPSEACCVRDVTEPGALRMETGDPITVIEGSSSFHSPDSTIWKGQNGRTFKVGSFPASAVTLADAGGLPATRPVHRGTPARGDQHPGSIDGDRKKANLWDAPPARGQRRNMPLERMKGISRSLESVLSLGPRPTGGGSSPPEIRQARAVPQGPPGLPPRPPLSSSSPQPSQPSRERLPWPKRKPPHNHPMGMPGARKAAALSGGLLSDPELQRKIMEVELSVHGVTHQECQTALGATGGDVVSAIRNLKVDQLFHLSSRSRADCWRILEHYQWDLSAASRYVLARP
Sequence of KIT (human), P10721 [V559D] (P10721 whole entry V559D, looked up): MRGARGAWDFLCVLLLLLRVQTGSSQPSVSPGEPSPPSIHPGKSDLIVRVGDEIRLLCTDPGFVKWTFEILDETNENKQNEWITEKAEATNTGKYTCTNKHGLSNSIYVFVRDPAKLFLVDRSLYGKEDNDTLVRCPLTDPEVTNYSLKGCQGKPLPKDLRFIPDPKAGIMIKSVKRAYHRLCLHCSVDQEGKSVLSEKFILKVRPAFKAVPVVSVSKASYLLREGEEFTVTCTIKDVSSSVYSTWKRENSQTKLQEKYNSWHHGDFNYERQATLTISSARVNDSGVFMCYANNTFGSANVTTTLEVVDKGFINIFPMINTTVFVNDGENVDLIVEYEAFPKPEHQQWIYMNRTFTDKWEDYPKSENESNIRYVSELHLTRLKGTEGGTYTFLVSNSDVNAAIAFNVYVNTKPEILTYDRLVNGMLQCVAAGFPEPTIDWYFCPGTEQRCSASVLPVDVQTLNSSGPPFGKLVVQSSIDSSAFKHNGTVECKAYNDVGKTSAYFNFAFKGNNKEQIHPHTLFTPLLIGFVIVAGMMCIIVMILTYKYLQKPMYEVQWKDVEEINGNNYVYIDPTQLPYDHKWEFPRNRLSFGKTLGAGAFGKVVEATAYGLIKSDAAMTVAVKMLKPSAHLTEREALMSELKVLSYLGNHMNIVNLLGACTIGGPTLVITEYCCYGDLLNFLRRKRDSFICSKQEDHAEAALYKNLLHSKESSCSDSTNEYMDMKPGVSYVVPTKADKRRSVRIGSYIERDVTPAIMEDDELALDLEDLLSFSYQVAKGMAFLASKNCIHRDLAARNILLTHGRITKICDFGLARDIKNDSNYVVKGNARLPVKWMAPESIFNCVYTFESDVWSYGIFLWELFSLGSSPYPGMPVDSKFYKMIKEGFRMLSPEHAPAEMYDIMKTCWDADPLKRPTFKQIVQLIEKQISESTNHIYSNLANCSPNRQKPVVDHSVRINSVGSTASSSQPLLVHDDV
Sequence of KIT (human), P10721 [D816V] (P10721 whole entry D816V, looked up): as the sequence (P10721 whole entry V559D, looked up) above, with D559V, D816V counted along it

CCN1CCN(Cc2ccc(NC(=O)c3ccc(C)c(/C=C/c4cnc(Nc5cc(N6CCNCC6)nc(C)n5)cn4)c3)cc2C(F)(F)F)CC1
kinase still bound, per cent of control [1]: 3.8% | kinase still bound, per cent of control [2]: 46% | kinase still bound, per cent of control [3]: 100% | kinase still bound, per cent of control [4]: 78% | kinase still bound, per cent of control [5]: 81% | kinase still bound, per cent of control [6]: 100% | kinase still bound, per cent of control [7]: 99% | kinase still bound, per cent of control [8]: 100% | kinase still bound, per cent of control [9]: 89% | kinase still bound, per cent of control [10]: 2.9% | kinase still bound, per cent of control [11]: 5.4% | kinase still bound, per cent of control [12]: 80% | kinase still bound, per cent of control [13]: 5.4% | kinase still bound, per cent of control [14]: 5.7% | kinase still bound, per cent of control [15]: 23% | kinase still bound, per cent of control [16]: 12% | kinase still bound, per cent of control [17]: 34% | kinase still bound, per cent of control [18]: 25% | kinase still bound, per cent of control [19]: 0.05% | kinase still bound, per cent of control [20]: 55% | kinase still bound, per cent of control [21]: 100% | kinase still bound, per cent of control [22]: 2.5% | kinase still bound, per cent of control [23]: 3.2% | kinase still bound, per cent of control [24]: 83% | kinase still bound, per cent of control [25]: 25% | kinase still bound, per cent of control [26]: 49% | kinase still bound, per cent of control [27]: 100% | kinase still bound, per cent of control [28]: 100% | kinase still bound, per cent of control [29]: 0% | kinase still bound, per cent of control [30]: 100% | kinase still bound, per cent of control [31]: 100% | kinase still bound, per cent of control [32]: 0.15% | kinase still bound, per cent of control [33]: 85% | kinase still bound, per cent of control [34]: 100% | kinase still bound, per cent of control [35]: 43% | kinase still bound, per cent of control [36]: 100% | kinase still bound, per cent of control [37]: 30% | kinase still bound, per cent of control [38]: 57% | kinase still bound, per cent of control [39]: 84% | kinase still bound, per cent of control [40]: 13% | kinase still bound, per cent of control [41]: 100% | kinase still bound, per cent of control [42]: 83%
